Experimental data published in PubChem BioAssay AID1259407 (Chemical Carcinogenesis Research Information System (CCRIS), 2018).
Calls of active or inactive are those of the source. The rule behind the calls is not given here.

System: CCRIS mutagenicity, Ames/micronucleus/aberration tests
Assay: CCRIS mutagenicity studies

Measured: mutagenic call

ClCCCl
inactive: Test System: AMES SALMONELLA TYPHIMURIUM, Strain/Indicator: TA97, Metabolic Activation: HAMSTER, LIVER, S-9, AROCLOR 1254 (10%), Method: PREINCUBATION inactive; negative | Test System: AMES SALMONELLA TYPHIMURIUM, Strain/Indicator: TA97, Metabolic Activation: NONE, Method: PREINCUBATION inactive; negative | Test System: AMES SALMONELLA TYPHIMURIUM, Strain/Indicator: TA97, Metabolic Activation: NONE, Method: STANDARD PLATE inactive; negative | Test System: AMES SALMONELLA TYPHIMURIUM, Strain/Indicator: TA97, Metabolic Activation: RAT, LIVER, S-9, AROCLOR 1254 (10%), Method: PREINCUBATION inactive; negative | Test System: AMES SALMONELLA TYPHIMURIUM, Strain/Indicator: TA98, Metabolic Activation: HAMSTER, LIVER, S-9, AROCLOR 1254 (10%), Method: PREINCUBATION inactive; negative | Test System: AMES SALMONELLA TYPHIMURIUM, Strain/Indicator: TA98, Metabolic Activation: NONE, Method: PREINCUBATION inactive; negative | Test System: AMES SALMONELLA TYPHIMURIUM, Strain/Indicator: TA98, Metabolic Activation: NONE, Method: STANDARD PLATE inactive; negative | Test System: AMES SALMONELLA TYPHIMURIUM, Strain/Indicator: TA98, Metabolic Activation: RAT, LIVER, S-9, AROCLOR 1254 (10%), Method: PREINCUBATION inactive; negative | Test System: AMES SALMONELLA TYPHIMURIUM, Strain/Indicator: TA100, Metabolic Activation: HAMSTER, LIVER, S-9, AROCLOR 1254 (10%), Method: PREINCUBATION inactive; negative | Test System: AMES SALMONELLA TYPHIMURIUM, Strain/Indicator: TA100, Metabolic Activation: NONE, Method: PREINCUBATION inactive; negative | Test System: AMES SALMONELLA TYPHIMURIUM, Strain/Indicator: TA100, Metabolic Activation: RAT, LIVER, S-9, AROCLOR 1254 (10%), Method: PREINCUBATION inactive; negative | Test System: AMES SALMONELLA TYPHIMURIUM, Strain/Indicator: TA104, Metabolic Activation: NONE, Method: STANDARD PLATE inactive; negative | Test System: AMES SALMONELLA TYPHIMURIUM, Strain/Indicator: TA1535, Metabolic Activation: NONE, Method: PREINCUBATION inactive; negative | Test System: AMES SALMONELLA TYPHIMURIUM, Strain/Indicator: TA1535, Metabolic Activation: NONE, Method: STANDARD PLATE inactive; negative | Test System: Ames Salmonella typhimurium, Strain/Indicator: TA98, Metabolic Activation: None, Method: Preincubation inactive; negative | Test System: Ames Salmonella typhimurium, Strain/Indicator: TA98, Metabolic Activation: Rat, Liver, S9, Sodium phenobarbital and 5,6-benzoflavone (10%), Method: Preincubation inactive; negative | Test System: Ames Salmonella typhimurium, Strain/Indicator: TA100, Metabolic Activation: None, Method: Preincubation inactive; negative | Test System: Ames Salmonella typhimurium, Strain/Indicator: TA100, Metabolic Activation: Rat, Liver, S9, Sodium phenobarbital and 5,6-benzoflavone (10%), Method: Preincubation inactive; negative | Test System: Ames Salmonella typhimurium, Strain/Indicator: TA1537, Metabolic Activation: None, Method: Preincubation inactive; negative | Test System: Ames Salmonella typhimurium, Strain/Indicator: TA1537, Metabolic Activation: Rat, Liver, S9, Sodium phenobarbital and 5,6-benzoflavone (10%), Method: Preincubation inactive; negative | Test System: E. coli, Strain/Indicator: WP2uvrA/pKM101, Metabolic Activation: None, Method: Preincubation inactive; negative | Test System: E. coli, Strain/Indicator: WP2uvrA/pKM101, Metabolic Activation: Rat, Liver, S9, Sodium phenobarbital and 5,6-benzoflavone (10%), Method: Preincubation inactive; negative
active: Test System: AMES SALMONELLA TYPHIMURIUM, Strain/Indicator: TA97, Metabolic Activation: RAT, LIVER, S-9, AROCLOR 1254, Method: STANDARD PLATE active; positive | Test System: AMES SALMONELLA TYPHIMURIUM, Strain/Indicator: TA98, Metabolic Activation: RAT, LIVER, S-9, AROCLOR 1254, Method: STANDARD PLATE active; positive | Test System: AMES SALMONELLA TYPHIMURIUM, Strain/Indicator: TA100, Metabolic Activation: NONE, Method: STANDARD PLATE active; positive | Test System: AMES SALMONELLA TYPHIMURIUM, Strain/Indicator: TA100, Metabolic Activation: RAT, LIVER, S-9, AROCLOR 1254, Method: STANDARD PLATE active; positive | Test System: AMES SALMONELLA TYPHIMURIUM, Strain/Indicator: TA104, Metabolic Activation: RAT, LIVER, S-9, AROCLOR 1254, Method: STANDARD PLATE active; positive | Test System: AMES SALMONELLA TYPHIMURIUM, Strain/Indicator: TA1530, Metabolic Activation: NONE, Method: SPOT active; positive | Test System: AMES SALMONELLA TYPHIMURIUM, Strain/Indicator: TA1535, Metabolic Activation: HAMSTER, LIVER, S-9, AROCLOR 1254 (10%), Method: PREINCUBATION active; positive | Test System: AMES SALMONELLA TYPHIMURIUM, Strain/Indicator: TA1535, Metabolic Activation: NONE, Method: SPOT active; positive | Test System: AMES SALMONELLA TYPHIMURIUM, Strain/Indicator: TA1535, Metabolic Activation: RAT, LIVER, S-9, AROCLOR 1254 (10%), Method: PREINCUBATION active; positive | Test System: AMES SALMONELLA TYPHIMURIUM, Strain/Indicator: TA1535, Metabolic Activation: RAT, LIVER, S-9, Method: STANDARD PLATE active; positive | Test System: AMES SALMONELLA TYPHIMURIUM, Strain/Indicator: TA1535, Metabolic Activation: S-9 MIX, Method: STANDARD PLATE active; positive | Test System: Ames Salmonella typhimurium, Strain/Indicator: TA1535, Metabolic Activation: Rat, Liver, S9, Sodium phenobarbital and 5,6-benzoflavone (10%), Method: Preincubation active; positive
